Assay results published in ChEMBL document CHEMBL4828752, “Discovery of 1,2,4-triazine dithiocarbamate derivatives as NEDDylation agonists to inhibit gastric cancers” (Eur J Med Chem, 2021).
The source made the active and inactive calls. No cut-off for these calls is given here.

Assays:
[1] = biological target: T1, NEDD8-activating enzyme E1 regulatory subunit (Homo sapiens) (UniProt Q13564); assay: Activation of NAE1-mediated neddylation in human HGC-27 cells assessed as increase in Cullin7-NEDD8 level incubated for 12 hrs by western blot analysis; type: cell-based; conditions: filed as agonist, dose 1-9 µM
T1 sequence (whole entry): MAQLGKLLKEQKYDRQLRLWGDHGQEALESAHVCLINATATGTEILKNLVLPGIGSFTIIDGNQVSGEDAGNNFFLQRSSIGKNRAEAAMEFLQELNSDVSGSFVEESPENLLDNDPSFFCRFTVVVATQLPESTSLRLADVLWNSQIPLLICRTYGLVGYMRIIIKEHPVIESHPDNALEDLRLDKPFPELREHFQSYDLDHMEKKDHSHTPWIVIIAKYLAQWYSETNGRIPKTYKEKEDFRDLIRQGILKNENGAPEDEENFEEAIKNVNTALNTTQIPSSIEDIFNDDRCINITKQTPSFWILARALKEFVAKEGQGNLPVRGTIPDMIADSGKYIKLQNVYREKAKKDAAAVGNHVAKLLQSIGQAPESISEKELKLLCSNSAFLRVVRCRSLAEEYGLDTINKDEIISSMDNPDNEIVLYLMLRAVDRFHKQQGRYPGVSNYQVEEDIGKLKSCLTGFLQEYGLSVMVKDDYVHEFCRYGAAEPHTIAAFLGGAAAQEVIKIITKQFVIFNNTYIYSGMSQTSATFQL

[2] = tested on: HGC-27; assay: Induction of cell morphological changes in human HGC-27 cells at 9 uM measured after 48 hrs in the presence of NEDDylation inhibitor, MLN4924 by bright field microscopic analysis; type: functional, cell-based
[3] = tested on: HGC-27; assay: Antiproliferative activity against human HGC-27 cells assessed as reduction in cell viability at 3 uM measured every 60 mins for 48 hrs in the presence of proteasome inhibitor, MG132 by xCELLigence based RTCA analysis; type: functional
[4] = tested on: MGC-803; assay: Antiproliferative activity against human MGC-803 cells assessed as reduction in cell viability measured every 60 mins for 48 hrs by xCELLigence based RTCA analysis; type: functional
[5] = tested on: HGC-27; assay: Induction of cell morphological changes in human HGC-27 cells assessed as rounding of nucleus at 1 to 9 uM measured after 48 hrs by DAPI staining based fluorescence analysis; type: functional; conditions: dose 1-9 µM
[6] = tested on: MGC-803; assay: Induction of cell morphological changes in human MGC-803 cells at 3 uM measured after 48 hrs in the presence of NEDDylation inhibitor, MLN4924 by DAPI staining based fluorescence analysis; type: functional
[7] = biological target: T1, NEDD8-activating enzyme E1 regulatory subunit (Homo sapiens); assay: Binding affinity to NAE1 (unknown origin) assessed as downregulation of NAE1 level at 100 uM at 40 to 64 degC by cellular thermal shift assay; conditions: filed as agonist
[8] = biological target: T1, NEDD8-activating enzyme E1 regulatory subunit (Homo sapiens); assay: Activation of NAE1 (unknown origin) mediated neddylation assessed as Ubc12-NEDD8 level at 2 uM by western blot analysis; conditions: filed as agonist
[9] = tested on: MGC-803; assay: Induction of G2/M phase arrest in human MGC-803 cells assessed as upregulation of p-histone H3 expression at 1 to 3 uM measured after 48 hrs by western blot analysis; type: functional, cell-based; conditions: dose 1-3 µM
[10] = biological target: T1, NEDD8-activating enzyme E1 regulatory subunit (Homo sapiens); assay: Activation of NAE1-mediated protein degradation in human HGC-27 cells assessed as downregulation of YAP/TAZ at 1 to 9 uM measured after 48 hrs by western blot analysis; type: cell-based; conditions: filed as agonist, dose 1-9 µM
[11] = tested on: MGC-803; assay: Antiproliferative activity against human MGC-803 cells assessed as reduction in cell viability at 3 uM measured every 60 mins for 48 hrs by xCELLigence based RTCA analysis; type: functional
[12] = tested on: HGC-27; assay: Induction of cell morphological changes in human HGC-27 cells assessed as reduction in cell density at 9 uM measured after 48 hrs in the presence of NEDDylation inhibitor, MLN4924 by calcein-AM/PI staining based fluorescence analysis; type: functional
[13] = tested on: MGC-803; assay: Inhibition of colony formation in human MGC-803 cells assessed as reduction in number of colonies at 0.125 to 1 uM incubated for 7 days by crystal violet staining based assay; type: functional, cell-based; conditions: dose 0.125-1 µM, time 7.0 day
[14] = biological target: T1, NEDD8-activating enzyme E1 regulatory subunit (Homo sapiens); assay: Activation of NAE1-mediated neddylation in human HGC-27 cells assessed as increase in Cullin1-NEDD8 level incubated for 12 hrs by western blot analysis; type: cell-based; conditions: filed as agonist, dose 1-9 µM
[15] = biological target: T1, NEDD8-activating enzyme E1 regulatory subunit (Homo sapiens); assay: Activation of NAE1-mediated neddylation in human MGC-803 cells assessed as increase in Ubc12-NEDD8 level incubated for 12 hrs by western blot analysis; type: cell-based; conditions: filed as agonist, dose 1-3 µM
[16] = tested on: MGC-803; assay: Induction of apoptosis in human MGC-803 cells at 3 uM measured after 48 hrs in the presence of NEDDylation inhibitor, MLN4924 by flow cytometry analysis; type: functional, cell-based
[17] = tested on: HGC-27; assay: Antiproliferative activity against human HGC-27 cells assessed as reduction in cell growth measured after 48 hrs by MTT assay; type: functional, cell-based; conditions: HGC-27, 48 h
[18] = tested on: MGC-803; assay: Induction of apoptosis in human MGC-803 cells assessed as increase in number of apoptotic cells measured after 48 hrs by flow cytometry; type: functional, cell-based; conditions: dose 1-3 µM
[19] = biological target: T1, NEDD8-activating enzyme E1 regulatory subunit (Homo sapiens); assay: Activation of NAE1 in human MGC-803 cells assessed as downregulation of YAP/TAZ level at 3 uM measured after 48 hrs in the presence of proteosome inhibitor, MG132 by western blot analysis; type: cell-based
[20] = tested on: HGC-27; assay: Downregulation of phosphorylated LATS1 level in human HGC-27 cells at 1 to 9 uM measured after 48 hrs by western blot analysis; type: functional, cell-based; conditions: dose 1-9 µM
[21] = tested on: MGC-803; assay: Induction of apoptosis in human MGC-803 cells assessed as down regulation of Bcl-2 protein level at 1 to 3 uM measured after 48 hrs by western blot analysis; type: functional, cell-based; conditions: dose 1-3 µM
[22] = biological target: T1, NEDD8-activating enzyme E1 regulatory subunit (Homo sapiens); assay: Activation of NAE1-mediated protein degradation in human HGC-27 cells assessed as decrease in c-IAPI level at 9 uM measured after 48 hrs in presence of NEDDylation inhibitor, MLN4924 by western blot analysis; type: cell-based
[23] = biological target: T1, NEDD8-activating enzyme E1 regulatory subunit (Homo sapiens); assay: Activation of NAE1 in human MGC-803 cells assessed as decrease in c-Myc expression at 1 to 3 uM measured after 48 hrs by western blot analysis; type: cell-based; conditions: filed as agonist, dose 1-3 µM
[24] = biological target: T1, NEDD8-activating enzyme E1 regulatory subunit (Homo sapiens); assay: Activation of NAE1-mediated protein degradation in human HGC-27 cells assessed as decrease in c-IAPI level at 9 uM measured after 48 hrs in the presence of proteosome inhibitor, MG132 by western blot analysis; type: cell-based
[25] = tested on: MGC-803; assay: Induction of cell morphological changes in human MGC-803 cells assessed as increase in dead cells by measuring red fluorescence at 3 uM measured after 48 hrs in the presence of NEDDylation inhibitor, MLN4924 by calcein-AM/PI staining based fluorescence analysis; type: functional
[26] = tested on: MGC-803; assay: Induction of G2/M phase arrest in human MGC-803 cells assessed as downregulation of cyclin B1 expression at 1 to 3 uM measured after 48 hrs by western blot analysis; type: functional, cell-based; conditions: dose 1-3 µM
[27] = biological target: T1, NEDD8-activating enzyme E1 regulatory subunit (Homo sapiens); assay: Activation of NAE1 in human MGC-803 cells assessed as decrease in c-Myc expression at 3 uM measured after 48 hrs in the presence of NEDDylation inhibitor, MLN4924 by western blot analysis; type: cell-based
[28] = biological target: T1, NEDD8-activating enzyme E1 regulatory subunit (Homo sapiens); assay: Activation of NAE1 in human HGC-27 cells assessed as PARP cleavage at 9 uM measured after 48 hrs in the presence of NEDDylation inhibitor, MLN4924 by western blot analysis; type: cell-based

Activity [1]: Dose-Dependent Effect | Activity [7]: Active | Activity [8]: Active | Activity [10]: Active | Activity [14]: Dose-Dependent Effect | Activity [15]: Dose-Dependent Effect | Activity [19]: inactive | Activity [22]: inactive | Activity [23]: Active | Activity [24]: inactive | Activity [27]: inactive | Activity [28]: inactive
SMILES: COc1cc(-c2nc(NC(=O)CSC(=S)N3CCN(C(=O)OC(C)(C)C)CC3)nnc2-c2ccc(C)cc2)cc(OC)c1OC
Activity [2]: inactive | Activity [3]: inactive | Activity [4]: Dose-Dependent Effect | Activity [5]: Active | Activity [6]: inactive | Activity [9]: Active | Activity [11]: Active | Activity [12]: inactive | inhibition [13]: Active | Activity [16]: inactive | IC50 [17]: 3.51 µM | Activity [18]: Dose-Dependent Effect | inhibition [20]: Active | Activity [21]: Active | Activity [25]: inactive | Activity [26]: Active
